Laboratory results from US20120130104A1, “CYCLOPROPENES-[…] TO CONTROL RIPENING PROCESSES OF AGRICULTURAL PRODUCTS” (priority 2005, published 2012).

Test system: tomatoes
Assay: Inhibitory effects of cyclopropene compounds on tomato ripening
Assay type: in vivo
Details: for Degree of ripening 0, number of tomatoes, Treated / Degree of ripening 1, number of tomatoes, Treated / Degree of ripening 2, number of tomatoes, Treated / Degree of ripening 3, number of tomatoes, Treated / Degree of ripening 4, number of tomatoes, Treated / Degree of ripening 5, number of tomatoes, Treated: scale 0 = no red color, 5 = completely ripened to dark red
Experimental: A cube (60×60×60 cm) was fabricated using a transparent acrylic plastic plate. The upper surface of the cube was equipped with two valves for air-injection and exhaust. Immediately prior to beginning of the red ripening stages, 20 blue tomatoes were harvested and divided into a treatment group and a control group which were then placed in acrylic plastic vessels, respectively. Among two plastic vessels, the treatment group was treated with 1-methylcyclopropene generated by injection of 3 mL diglyme solution containing 0.2 g of 1-methyl-1-(methanesulfonyloxy)-2-(trimethylsilyl)cyclopropane {synthesized in Section (2) of Example 5} into a column packed with 5 g of 15% Bu4NF coated Silica gel {prepared in Section (2) of Example 4} while maintaining the air flow at a flow rate of 2 L/min using a small compressor (see FIG. 3).
Tomatoes of the treatment group were treated for 1 hour according to the above-mentioned method and were then left for 12 hours while closing the valve. And then, tomatoes of the treatment group and tomatoes of the control group were observed on a progress of turning into red color. Based on the observation results, the ripening progress of tomatoes was evaluated.
Herein, the degree of ripening of tomatoes was classified on a scale of 0 to 5:
0: No red color similar to when completely green tomatoes were harvested 5: Completely ripened to dark red 1 to 4: Red color between the scale of 0 and 5
Therefore, the higher value represents the redder tomato color.

CC1=CC1 [1-methylcyclopropene]
inhibitory effects on the ripening process of tomatoes (1-methylcyclopropene generated by the device): significant inhibitory effects | Degree of ripening 0, number of tomatoes, Treated (Day 0): 10 | Degree of ripening 1, number of tomatoes, Treated (Day 0): 0 | Degree of ripening 2, number of tomatoes, Treated (Day 0): 0 | Degree of ripening 3, number of tomatoes, Treated (Day 0): 0 | Degree of ripening 4, number of tomatoes, Treated (Day 0): 0 | Degree of ripening 5, number of tomatoes, Treated (Day 0): 0 | Degree of ripening 0, number of tomatoes, Treated (Day 1): 10 | Degree of ripening 1, number of tomatoes, Treated (Day 1): 0 | Degree of ripening 2, number of tomatoes, Treated (Day 1): 0 | Degree of ripening 3, number of tomatoes, Treated (Day 1): 0 | Degree of ripening 4, number of tomatoes, Treated (Day 1): 0 | Degree of ripening 5, number of tomatoes, Treated (Day 1): 0 | Degree of ripening 0, number of tomatoes, Treated (Day 2): 10 | Degree of ripening 1, number of tomatoes, Treated (Day 2): 0 | Degree of ripening 2, number of tomatoes, Treated (Day 2): 0 | Degree of ripening 3, number of tomatoes, Treated (Day 2): 0 | Degree of ripening 4, number of tomatoes, Treated (Day 2): 0 | Degree of ripening 5, number of tomatoes, Treated (Day 2): 0 | Degree of ripening 0, number of tomatoes, Treated (Day 3): 9 | Degree of ripening 1, number of tomatoes, Treated (Day 3): 1 | Degree of ripening 2, number of tomatoes, Treated (Day 3): 0 | Degree of ripening 3, number of tomatoes, Treated (Day 3): 0 | Degree of ripening 4, number of tomatoes, Treated (Day 3): 0 | Degree of ripening 5, number of tomatoes, Treated (Day 3): 0 | Degree of ripening 0, number of tomatoes, Treated (Day 4): 8 | Degree of ripening 1, number of tomatoes, Treated (Day 4): 1 | Degree of ripening 2, number of tomatoes, Treated (Day 4): 1 | Degree of ripening 3, number of tomatoes, Treated (Day 4): 0 | Degree of ripening 4, number of tomatoes, Treated (Day 4): 0 | Degree of ripening 5, number of tomatoes, Treated (Day 4): 0 | Degree of ripening 0, number of tomatoes, Treated (Day 5): 8 | Degree of ripening 1, number of tomatoes, Treated (Day 5): 1 | Degree of ripening 2, number of tomatoes, Treated (Day 5): 0 | Degree of ripening 3, number of tomatoes, Treated (Day 5): 1 | Degree of ripening 4, number of tomatoes, Treated (Day 5): 0 | Degree of ripening 5, number of tomatoes, Treated (Day 5): 0 | Degree of ripening 0, number of tomatoes, Treated (Day 6): 6 | Degree of ripening 1, number of tomatoes, Treated (Day 6): 2 | Degree of ripening 2, number of tomatoes, Treated (Day 6): 1 | Degree of ripening 3, number of tomatoes, Treated (Day 6): 0 | Degree of ripening 4, number of tomatoes, Treated (Day 6): 1 | Degree of ripening 5, number of tomatoes, Treated (Day 6): 0 | Degree of ripening 0, number of tomatoes, Treated (Day 7): 6 | Degree of ripening 1, number of tomatoes, Treated (Day 7): 2 | Degree of ripening 2, number of tomatoes, Treated (Day 7): 1 | Degree of ripening 3, number of tomatoes, Treated (Day 7): 0 | Degree of ripening 4, number of tomatoes, Treated (Day 7): 0 | Degree of ripening 5, number of tomatoes, Treated (Day 7): 1 | Degree of ripening 0, number of tomatoes, Treated (Day 8): 5 | Degree of ripening 1, number of tomatoes, Treated (Day 8): 2 | Degree of ripening 2, number of tomatoes, Treated (Day 8): 1 | Degree of ripening 3, number of tomatoes, Treated (Day 8): 1 | Degree of ripening 4, number of tomatoes, Treated (Day 8): 0 | Degree of ripening 5, number of tomatoes, Treated (Day 8): 1 | Degree of ripening 0, number of tomatoes, Treated (Day 9): 2 | Degree of ripening 1, number of tomatoes, Treated (Day 9): 3 | Degree of ripening 2, number of tomatoes, Treated (Day 9): 2 | Degree of ripening 3, number of tomatoes, Treated (Day 9): 1 | Degree of ripening 4, number of tomatoes, Treated (Day 9): 1 | Degree of ripening 5, number of tomatoes, Treated (Day 9): 1 | Degree of ripening 0, number of tomatoes, Treated (Day 10): 1 | Degree of ripening 1, number of tomatoes, Treated (Day 10): 1 | Degree of ripening 2, number of tomatoes, Treated (Day 10): 3 | Degree of ripening 3, number of tomatoes, Treated (Day 10): 2 | Degree of ripening 4, number of tomatoes, Treated (Day 10): 1 | Degree of ripening 5, number of tomatoes, Treated (Day 10): 2 | full ripening of tomatoes of the treatment group (even after 10 days): most of them did not exhibit full ripening | time after which tomatoes of the treatment group began the ripening process (treatment group, control group began to ripen after 1 day): about 3 days
